US8535706B2, “Bone implant” (Duquesne University of the Holy Spirit, priority 2010, dated 2013)

Key:
[1] = Heat stability of Melatonin adsorbed or linked to a substrate; assay type: physicochemical
From the text: In the practice of the invention, the coadministration, adsorption or linking of Melatonin to the bone graft substrate preferably involves Melatonin per se, although the use of the precursors or metabolites of Melatonin (including but not limited to 5-hydroxytryptophan (5OHTrp), 5-hydroxytryptamine (5HT), N-acetyl-5-hydroxytryptamine (NA5OHT) or 6-hydroxymelatonin (6OHMEL)) still falls within the scope of this invention albeit in a less preferred way.

mesenchymal stem cells = conditions: cited from earlier work

Compound | stability to autoclaving ([1]; adsorbed or linked to substrate, autoclaved such as at 180° C.) | stability to sintering ([1]; sintering temperatures used to make bone grafts and implants) | spreading of the cells (mesenchymal stem cells; mesenchymal stem cells) | attachment of mesenchymal stem cells (mesenchymal stem cells; substrates: hydroxyapatite, titanium, polymer scaffolds)
COc1ccc2[nH]cc(CCNC(C)=O)c2c1 [Melatonin, N-acetyl-5-methoxytryptamine] | surviving the autoclaving process intact | cannot survive |  | 
arg-gly-asp [RDG peptide] |  |  | does not enhance the spreading | can increase the attachment
